# Assay results published in paper PMC11572954 (Science (New York, N.Y.), 2024).
# Columns and labels:
# PPARδ = target: T1, PPARδ (Homo sapiens, UniProt Q03181); assay: DiscoverX cell-based reporter assay, agonist mode
# T1 sequence (Q03181 1-441): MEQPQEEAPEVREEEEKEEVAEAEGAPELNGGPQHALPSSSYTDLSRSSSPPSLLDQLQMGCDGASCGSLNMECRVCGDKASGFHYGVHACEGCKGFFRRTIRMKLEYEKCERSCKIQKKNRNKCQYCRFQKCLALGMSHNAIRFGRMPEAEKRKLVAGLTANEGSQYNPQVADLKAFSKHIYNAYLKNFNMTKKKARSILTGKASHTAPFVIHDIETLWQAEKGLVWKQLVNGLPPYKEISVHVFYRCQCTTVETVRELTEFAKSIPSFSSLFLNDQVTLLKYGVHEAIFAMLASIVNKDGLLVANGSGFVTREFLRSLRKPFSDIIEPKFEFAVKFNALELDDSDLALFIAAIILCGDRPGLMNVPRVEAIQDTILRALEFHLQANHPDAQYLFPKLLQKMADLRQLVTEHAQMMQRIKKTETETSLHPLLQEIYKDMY
# PPARα = target: T2, PPARα (Homo sapiens, UniProt Q07869); assay: DiscoverX cell-based reporter assay, agonist mode
# T2 sequence (Q07869 1-468): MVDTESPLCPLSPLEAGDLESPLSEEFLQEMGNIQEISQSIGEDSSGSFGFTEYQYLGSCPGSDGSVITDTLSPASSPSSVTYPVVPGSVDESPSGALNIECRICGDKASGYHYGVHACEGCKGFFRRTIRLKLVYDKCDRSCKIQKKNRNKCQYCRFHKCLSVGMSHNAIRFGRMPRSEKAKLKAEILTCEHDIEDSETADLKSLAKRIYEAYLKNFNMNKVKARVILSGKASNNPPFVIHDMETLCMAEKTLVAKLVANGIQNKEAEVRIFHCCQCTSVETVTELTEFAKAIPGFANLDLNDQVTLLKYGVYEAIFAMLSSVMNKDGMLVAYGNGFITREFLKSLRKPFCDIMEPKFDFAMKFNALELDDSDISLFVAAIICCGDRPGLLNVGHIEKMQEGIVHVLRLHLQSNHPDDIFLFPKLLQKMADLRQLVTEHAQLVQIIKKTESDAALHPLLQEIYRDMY
# [1] = target: T3, F. prausnitzii FAAH (CGOBPECO_01956) (Faecalibacterium prausnitzii, UniProt A0A564UB45); assay: LC-MS hydrolysis rate assay; type: biochemical; settings: 100 uM OEA
# T3 sequence (A0A564UB45 31-399): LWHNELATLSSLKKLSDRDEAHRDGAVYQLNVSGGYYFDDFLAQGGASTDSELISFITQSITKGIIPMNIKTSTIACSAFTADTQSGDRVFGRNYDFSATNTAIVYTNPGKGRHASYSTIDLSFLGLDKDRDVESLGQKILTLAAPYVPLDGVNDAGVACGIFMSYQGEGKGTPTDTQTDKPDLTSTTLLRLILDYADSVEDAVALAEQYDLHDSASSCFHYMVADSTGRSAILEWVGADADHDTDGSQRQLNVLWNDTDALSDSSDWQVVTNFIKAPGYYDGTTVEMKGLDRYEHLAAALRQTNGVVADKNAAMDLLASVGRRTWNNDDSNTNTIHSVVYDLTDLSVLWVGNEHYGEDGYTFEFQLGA
# GPR84 = GPR84 (Homo sapiens, UniProt Q9NQS5); assay: DiscoverX cell-based reporter assay, agonist mode
# GPR84, sequence (Q9NQS5 whole entry): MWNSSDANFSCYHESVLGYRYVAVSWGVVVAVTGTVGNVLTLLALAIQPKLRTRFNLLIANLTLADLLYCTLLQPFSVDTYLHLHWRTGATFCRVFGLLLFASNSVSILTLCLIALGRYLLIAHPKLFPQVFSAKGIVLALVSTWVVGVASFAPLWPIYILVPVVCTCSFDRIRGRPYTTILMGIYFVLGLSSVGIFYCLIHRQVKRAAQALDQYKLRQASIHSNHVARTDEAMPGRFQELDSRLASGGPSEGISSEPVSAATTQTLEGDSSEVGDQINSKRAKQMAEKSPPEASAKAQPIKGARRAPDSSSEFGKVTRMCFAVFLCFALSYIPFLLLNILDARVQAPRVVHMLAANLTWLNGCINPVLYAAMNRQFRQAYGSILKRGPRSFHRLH
structure (smiles),measurement,setting,value
CCCCCCCC/C=C\CCCCCCCC(=O)NCCO [OEA],% activation at 10 μM,PPARδ,OEA was a strong agonist of PPARδ and to a lesser extent PPARα
same,% activation at 10 μM,PPARα,OEA was a strong agonist of PPARδ and to a lesser extent PPARα
same,LC-MS hydrolysis rate assay,[1],"hydrolytic activity of FAAH against PEA, OEA, C18:1-Arg, and C18:1-Lys (Fig. 2D)"
same,% activation at 10 μM,GPR84,"GPR84, which was strongly activated by OEA"
